Reference: US20040087590A1, “Novel biphenyl and biphenyl-like cannabinoids” (University of Connecticut, priority 2002, published 2004)
Where two headings read alike, the source gives them in different places.

Legend:
[1] = biological target: T1, CB1 cannabinoid receptor (Rattus norvegicus, UniProt P20272); assay: CB1 receptor binding assay ([3H] CP-55,940 displacement, rat forebrain membranes); details: 0.8 nM [3H] CP-55,940, read-out: CB1 (nM) binding affinity (Ki)
T1 construct: membranes were prepared from rat forebrain membranes; from tissue; host or cells: rat forebrain membranes
T1 sequence (P20272 whole entry): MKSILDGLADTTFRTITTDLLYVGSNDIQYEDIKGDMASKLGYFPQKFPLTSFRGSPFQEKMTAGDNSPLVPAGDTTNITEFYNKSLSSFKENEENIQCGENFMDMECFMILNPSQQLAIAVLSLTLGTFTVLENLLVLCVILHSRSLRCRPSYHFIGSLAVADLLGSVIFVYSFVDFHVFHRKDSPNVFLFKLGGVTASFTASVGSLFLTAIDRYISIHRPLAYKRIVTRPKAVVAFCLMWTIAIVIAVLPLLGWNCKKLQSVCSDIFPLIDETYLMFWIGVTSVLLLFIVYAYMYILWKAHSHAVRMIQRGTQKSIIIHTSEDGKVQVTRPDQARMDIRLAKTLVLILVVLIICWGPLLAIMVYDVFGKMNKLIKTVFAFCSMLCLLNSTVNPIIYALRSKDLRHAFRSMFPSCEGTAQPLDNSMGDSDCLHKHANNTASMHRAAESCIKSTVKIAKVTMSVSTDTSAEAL
Experimental: Some inventive analogs were tested for CB2 receptor binding affinity and for CB1 receptor affinity (to determine selectivity). As used herein, “binding affinity” is represented by the Ki value which is the inhibition constant correlated with the concentration of an analog required to occupy the 50% of the total number (Bmax) of the receptors. The lower the Ki value, the higher the binding affinity. […] For the CB1 receptor binding studies, membranes were prepared from rat forebrain membranes according to the procedure of P. R. Dodd et al, A Rapid Method for Preparing Synaptosomes: Comparison with Alternative Procedures, Brain Res., 107-118 (1981). The binding of the novel analogues to the CB1 cannabinoid receptor was assessed as described in W. A. Devane et al, Determination and Characterization of a Cannabinoid Receptor in a Rat Brain, Mol. Pharmacol., 34, 605-613 (1988) and A. Charalambous et al, 5′-azido Δ^8-THC: A Novel Photoaffinity Label for the Cannabinoid Receptor, J. Med. Chem., 35, 3076-3079 (1992) with the following changes. The above articles are incorporated by reference herein.
Membranes, previously frozen at −80° C., were thawed on ice. To the stirred suspension was added three volumes of TME (25 mM Tris-HCl buffer, 5 mM MgCl2 and 1 mM EDTA) at a pH 7.4. The suspension was incubated at 4° C. for 30 min. At the end of the incubation, the membranes were pelleted and washed three times with TME.
The treated membranes were subsequently used in the binding assay described below. Approximately 30 μg of membranes were incubated in silanized 96-well microtiter plate with TME containing 0.1% essentially fatty acid-free bovine serum albumin (BSA), 0.8 nM [^3H] CP-55,940, and various concentrations of test materials in a final volume of 200 μL. The assays were incubated for 1 hour at 30° C. and then immediately filtered using Packard Filtermate 196 harvester and Whatman GF/C filterplates and washed with wash buffer (TME) containing 0.5% BSA. Radioactivity was detected using MicroScint 20 scintillation cocktail added directly to the dried filterplates, and the filterplates were counted using a Packard Instruments Top-Count. Nonspecific binding was assessed using 100 nM CP-55,940. Data collected from three independent experiments performed with duplicate determinations was normalized between 100% and 0% specific binding for [^3H] CP-55,940, determined using buffer and 100 nM CP-55,940. The normalized data was analyzed using a 4-parameter nonlinear logistic equation to yield IC50 values. Data from at least two independent experiments performed in duplicate was used to calculate IC50 values which were converted to Ki values using the assumptions of Cheng et al, Relationship Between the Inhibition Constant (Ki) and the concentration of Inhibitor which causes 50% Inhibition (IC50) of an Enzymatic Reaction, Biochem. Pharmacol., 22, 3099-3102, (1973), which is incorporated by reference herein.

[2] = biological target: T2, CB2 receptor (Mus musculus, UniProt P47936); assay: CB2 receptor binding assay ([3H] CP-55,940 displacement, mouse spleen membranes)
T2 construct: membranes were prepared from frozen mouse spleen; from tissue; host or cells: frozen mouse spleen membranes
T2 sequence (P47936 whole entry): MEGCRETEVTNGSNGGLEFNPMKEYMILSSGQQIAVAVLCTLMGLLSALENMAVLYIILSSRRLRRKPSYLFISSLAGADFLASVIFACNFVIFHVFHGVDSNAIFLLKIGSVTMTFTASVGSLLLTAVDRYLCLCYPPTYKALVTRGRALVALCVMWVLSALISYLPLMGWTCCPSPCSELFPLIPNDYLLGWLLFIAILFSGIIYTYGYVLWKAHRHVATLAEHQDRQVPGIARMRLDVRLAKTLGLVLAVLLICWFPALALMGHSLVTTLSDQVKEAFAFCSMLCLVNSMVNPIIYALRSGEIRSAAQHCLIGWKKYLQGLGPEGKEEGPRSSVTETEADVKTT
Experimental: The treated membranes were subsequently used in the binding assay described below. Approximately 30 μg of membranes were incubated in silanized 96-well microtiter plate with TME containing 0.1% essentially fatty acid-free bovine serum albumin (BSA), 0.8 nM [^3H] […] Radioactivity was detected using MicroScint 20 scintillation cocktail added directly to the dried filterplates, and the filterplates were counted using a Packard Instruments Top-Count. […] Data collected from three independent experiments performed with duplicate determinations was normalized between 100% and 0% specific binding for [^3H] […] The normalized data was analyzed using a 4-parameter nonlinear logistic equation to yield IC50 values.
Silanized centrifuge tubes were used throughout to minimize receptor loss due to adsorption. The CB2 binding assay was conducted in the same manner as for the CB1 binding assay. The binding affinities (Ki) were also expressed in nanomoles (nM).

[3] = mouse spleen membranes, [3H] CP-55,940, read-out: CB2 (nM) binding affinity (Ki)

| Structure (SMILES) | Ki [1] | Ki [2, 3] | Ki [2] |
| --- | --- | --- | --- |
| CCCCCCC(C)(C)c1cc(O)c(-c2cc(Cl)cc(Cl)c2)c(O)c1 [Compound 1] | 2.6 nM | 0.6 nM | – |
| CCCCCCC(C)(C)c1cc(O)c(-c2cc(C(F)(F)F)cc(C(F)(F)F)c2)c(O)c1 [Compound 2] | 9.7 nM | 0.9 nM | – |
| CCCCCCC(C)(C)c1cc(O)c(-c2cc([N+](=O)[O-])cc([N+](=O)[O-])c2)c(O)c1 [Compound 3] | 199 nM | 3.5 nM | – |
| CCCCCCC(C)(C)c1cc(O)c(-c2cc(F)cc(F)c2)c(O)c1 [Compound 4] | 57.5 nM | 8.4 nM | – |
| CCCCCCC(C)(C)c1cc(O)c(-c2cc(C)ccc2F)c(O)c1 [Compound 5] | 6.5 nM | 2.3 nM | – |
| CCCCCCC(C)(C)c1cc(O)c(-c2cc(Cl)ccc2Cl)c(O)c1 [Compound 6] | 7.7 nM | 2.6 nM | – |
| CCCCCCC(C)(C)c1cc(O)c(-c2cc(Cl)cc(Cl)c2)c(OC)c1 [Compound 7] | 105 nM | 13.9 nM | – |
| CCCCCCC(C)(C)c1cc(O)c(-c2c(F)cccc2F)c(O)c1 [Compound 8] | 40.3 nM | 13.4 nM | – |
| CCCCCCC(C)(C)c1cc(O)c(-c2c(Cl)ccc(Cl)c2Cl)c(O)c1 [Compound 9] | 23.2 nM | – | 3.4 nM |
| CCCCCCC(C)(C)c1cc(O)c(-c2cc(C)c(O)c(C)c2)c(O)c1 [Compound 10] | 1360 nM | 15.3 nM | – |
| CCCCCCC(C)(C)c1cc(O)c(-c2cc(C)c(OC)c(C)c2)c(O)c1 [Compound 11] | 1080 nM | 12.8 nM | – |
| CCCCCCC(C)(C)c1cc(O)c(-c2cc(C)c(N)c(C)c2)c(O)c1 [Compound 12] | 797 nM | 8 nM | – |
| CCCCCCC(C)(C)c1cc(O)c(-c2ccccc2CO)c(O)c1 [Compound 14] | 53.8 nM | 1.4 nM | – |
| CCCCCCC(C)(C)c1cc(O)c(-c2cc(O)ccc2CO)c(O)c1 [Compound 15] | 141 nM | – | 4.5 nM |
| CCCCCCC(C)(C)c1cc(O)c(-c2cncc(C(=O)OCC)c2)c(O)c1 [Compound 21] | 17.2 nM | – | 0.2 nM |
| CCCCCCC(C)(C)c1cc(O)c(-c2cccc(C(=O)OCC)c2)c(O)c1 [Compound 22] | 241 nM | 0.8 nM | – |
| CCCCCCC(C)(C)c1cc(O)c(-c2cccc(C(C)=O)c2)c(O)c1 [Compound 24] | 297 nM | – | 11.3 nM |
| CCCCCCC(C)(C)c1cc(O)c(-c2cc(O)ccc2CCCO)c(O)c1 [Compound 25] | 12.2 nM | 1 nM | – |
| CCCCCCC(C)(C)c1cc(O)c(-c2cc(F)ccc2CO)c(O)c1 [Compound 26] | 24.5 nM | 1.8 nM | – |
| CCCCCCC(C)(C)c1cc(O)c(-c2cc(CO)ccc2CO)c(O)c1 [Compound 27] | 29.6 nM | 2.6 nM | – |
| CCCCCCC(C)(C)c1cc(O)c(-c2cc(CO)ccc2C)c(O)c1 [Compound 28] | 70.4 nM | 7 nM | – |
| CCCCCCC(C)(C)c1cc(O)c(-c2ccc(C(=O)OCC)o2)c(O)c1 [Compound 29] | 3220 nM | – | 35.4 nM |
| CCCCCCC(C)(C)c1cc(O)c(-c2cccc(/C=C/C(=O)OCC)c2)c(O)c1 [Compound 30] | 397 nM | 10 nM | – |
| CCCCCCC(C)(C)c1cc(O)c(-c2cccc(C#N)c2)c(O)c1 [Compound 31] | 20 nM | 1.1 nM | – |
| CCCCCCC(C)(C)c1cc(O)c(-c2cc(Br)ccc2CO)c(O)c1 [Compound 32] | 8.6 nM | – | 0.7 nM |
| CCCCCCCN(C)c1cc(O)c(-c2cc(OC)ccc2C(=O)N(C(C)C)C(C)C)c(OC)c1 [Compound 36] | 1870 nM | – | 154 nM |
